In ChEMBL document CHEMBL1268924, “Design, solid-phase synthesis, and biological evaluation of novel 1,5-diarylpyrrole-3-carboxamides as carbonic anhydrase IX inhibitors” (Bioorg Med Chem, 2010):
pKi: −log10 of the molar value.

How the values were obtained:
Carbonic anhydrase 9 = Carbonic anhydrase 9 (Homo sapiens, UniProt Q16790); assay: Inhibition of human carbonic anhydrase 9 by stopped flow CO2 hydration assay
Carbonic anhydrase 1 = Carbonic anhydrase 1 (Homo sapiens, UniProt P00915); assay: Inhibition of human carbonic anhydrase 1 by stopped flow CO2 hydration assay
Chain of Carbonic anhydrase 1 (P00915 whole entry): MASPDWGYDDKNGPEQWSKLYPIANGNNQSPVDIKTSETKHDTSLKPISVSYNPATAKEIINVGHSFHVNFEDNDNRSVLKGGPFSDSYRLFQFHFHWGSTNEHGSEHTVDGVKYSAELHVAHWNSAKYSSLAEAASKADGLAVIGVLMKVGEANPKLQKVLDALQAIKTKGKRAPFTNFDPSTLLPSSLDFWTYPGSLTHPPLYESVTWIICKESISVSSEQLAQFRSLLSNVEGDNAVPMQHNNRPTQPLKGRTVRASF

SMILES | pKi (Carbonic anhydrase 9) | pKi (Carbonic anhydrase 1)
Cc1c(C(=O)NCCCN2CCN(C)CC2)cc(-c2ccc(-c3ccccc3)cc2)n1-c1ccc(S(N)(=O)=O)cc1 | 6.70 | 
Cc1c(C(=O)NCCCN(C)C)cc(-c2ccc(-c3ccccc3)cc2)n1-c1ccc(S(N)(=O)=O)cc1 | 6.95 | 
Cc1c(C(=O)NCCN(C)C)cc(-c2ccccc2)n1-c1ccc(S(N)(=O)=O)cc1 | 6.62 | 
Cc1c(C(=O)NCCCN2CCN(C)CC2)cc(-c2ccc3ccccc3c2)n1-c1ccc(S(N)(=O)=O)cc1 | 6.83 | 
Cc1c(C(=O)NCCN2CCN(C)CC2)cc(-c2ccc(-c3ccccc3)cc2)n1-c1ccc(S(N)(=O)=O)cc1 | 6.68 | 
Cc1c(C(=O)NCCCN(C)C)cc(-c2ccc3ccccc3c2)n1-c1ccc(S(N)(=O)=O)cc1 | 7.96 | 
Cc1c(C(=O)N2CCN(C)CC2)cc(-c2ccc3ccccc3c2)n1-c1ccc(S(N)(=O)=O)cc1 |  | < 5.00
Cc1c(C(=O)N2CCN(C)CC2)cc(-c2ccccc2)n1-c1ccc(S(N)(=O)=O)cc1 | 6.87 | 
Cc1c(C(=O)NCCCN2CCOCC2)cc(-c2ccc3ccccc3c2)n1-c1ccc(S(N)(=O)=O)cc1 | 6.86 | 
Cc1c(C(=O)NCCN2CCCCC2)cc(-c2ccc3ccccc3c2)n1-c1ccc(S(N)(=O)=O)cc1 | 6.90 | 
Cc1c(C(=O)NCCN2CCCC2)cc(-c2ccc(-c3ccccc3)cc2)n1-c1ccc(S(N)(=O)=O)cc1 | 6.82 | 
Cc1c(C(=O)NCCN2CCOCC2)cc(-c2ccc(-c3ccccc3)cc2)n1-c1ccc(S(N)(=O)=O)cc1 | 6.73 | 
Cc1c(C(=O)NCCN2CCOCC2)cc(-c2ccccc2)n1-c1ccc(S(N)(=O)=O)cc1 | 6.70 | 
Cc1c(C(=O)NCCN2CCCCC2)cc(-c2ccc(-c3ccccc3)cc2)n1-c1ccc(S(N)(=O)=O)cc1 | 6.78 | 
Cc1c(C(=O)N2CCN(C)CC2)cc(-c2ccc(-c3ccccc3)cc2)n1-c1ccc(S(N)(=O)=O)cc1 | 7.17 | 
Cc1c(C(=O)NCCN(C)C)cc(-c2ccc3ccccc3c2)n1-c1ccc(S(N)(=O)=O)cc1 | 8.00 | 
Cc1c(C(=O)NCCN2CCCCC2)cc(-c2ccccc2)n1-c1ccc(S(N)(=O)=O)cc1 | 7.05 | 
Cc1c(C(=O)NCCN2CCOCC2)cc(-c2ccc3ccccc3c2)n1-c1ccc(S(N)(=O)=O)cc1 | 7.66 | 
Cc1c(C(=O)NCCN2CCN(C)CC2)cc(-c2ccc3ccccc3c2)n1-c1ccc(S(N)(=O)=O)cc1 | 6.90 | 
Cc1c(C(=O)NCCCN2CCOCC2)cc(-c2ccc(-c3ccccc3)cc2)n1-c1ccc(S(N)(=O)=O)cc1 | 7.00 | 
Cc1c(C(=O)NCCCN(C)C)cc(-c2ccccc2)n1-c1ccc(S(N)(=O)=O)cc1 | 6.88 | 
Cc1c(C(=O)NCCN2CCCC2)cc(-c2ccc3ccccc3c2)n1-c1ccc(S(N)(=O)=O)cc1 | 7.52 | 
